Data published in patent US5378723A (priority 1994, dated 1995).
“Also recorded” adds a separate entry of the source. Read-outs that look alike come from different tables or passages of the source.

What was measured:
[1] = target: T1, human plasma BChE (Homo sapiens, UniProt P06276); assay: biochemical
T1 construct: the plasma was separated and diluted; from tissue; host or cells: human plasma from freshly collected blood, diluted 1:125

[2] = tested on: cholinesterase (ChE); format: biochemical
[3] = tested on: cholinesterase (ChE); settings: cited from earlier work
[4] = target: T2, human erythrocyte AChE (Homo sapiens, UniProt P22303); assay: biochemical
T2 construct: Erythrocytes were washed three times in isotonic saline, lysed; from tissue; host or cells: human erythrocytes from freshly collected blood, washed, lysed in 0.5% Triton-X
T2 sequence (P22303-2 with tags, fused parts or gaps limits assumed): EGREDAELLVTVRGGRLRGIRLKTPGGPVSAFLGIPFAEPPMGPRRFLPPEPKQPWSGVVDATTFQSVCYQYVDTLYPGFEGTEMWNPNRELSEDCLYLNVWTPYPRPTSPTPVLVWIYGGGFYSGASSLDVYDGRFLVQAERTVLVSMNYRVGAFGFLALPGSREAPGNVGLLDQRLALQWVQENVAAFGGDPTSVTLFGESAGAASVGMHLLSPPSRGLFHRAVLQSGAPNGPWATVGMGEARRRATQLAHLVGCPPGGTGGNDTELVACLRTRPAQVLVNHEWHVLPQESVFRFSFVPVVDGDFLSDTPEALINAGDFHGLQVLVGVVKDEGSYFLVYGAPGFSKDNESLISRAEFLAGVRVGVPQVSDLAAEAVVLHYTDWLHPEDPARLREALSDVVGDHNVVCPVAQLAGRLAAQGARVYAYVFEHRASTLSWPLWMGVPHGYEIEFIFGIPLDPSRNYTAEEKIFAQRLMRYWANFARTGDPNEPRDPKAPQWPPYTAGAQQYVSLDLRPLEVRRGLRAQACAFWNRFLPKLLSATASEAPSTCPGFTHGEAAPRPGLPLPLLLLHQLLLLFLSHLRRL

[5] = tested on: AChE; format: in vivo, rat; settings: for inhibiting properties and persistence: dialkylcarbamate vs mono-substituted carbamate
[6] = tested on: neuromuscular AChR; settings: natural isomer; cited from earlier work
[7] = AChE vs BChE, in vitro, biological standards
[8] = AChE vs BChE, in vitro, used as biological standards in this art area

T1 sequence (P06276 29-602): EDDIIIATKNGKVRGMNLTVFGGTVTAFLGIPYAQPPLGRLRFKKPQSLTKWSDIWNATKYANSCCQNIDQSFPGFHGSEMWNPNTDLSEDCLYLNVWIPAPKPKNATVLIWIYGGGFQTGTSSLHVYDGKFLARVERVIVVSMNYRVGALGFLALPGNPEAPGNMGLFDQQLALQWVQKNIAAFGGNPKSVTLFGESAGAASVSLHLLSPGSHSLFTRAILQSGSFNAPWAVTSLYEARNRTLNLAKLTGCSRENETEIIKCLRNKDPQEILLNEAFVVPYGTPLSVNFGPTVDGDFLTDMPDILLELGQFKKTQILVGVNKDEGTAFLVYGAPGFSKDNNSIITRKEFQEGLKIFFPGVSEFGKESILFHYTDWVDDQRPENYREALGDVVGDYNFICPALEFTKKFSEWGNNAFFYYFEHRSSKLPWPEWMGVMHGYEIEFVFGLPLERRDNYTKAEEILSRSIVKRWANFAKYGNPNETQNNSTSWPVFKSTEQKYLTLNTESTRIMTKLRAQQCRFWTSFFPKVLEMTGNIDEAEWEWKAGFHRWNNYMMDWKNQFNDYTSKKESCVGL

SMILES	IC50 [1]	IC50 [4]	further results
CNC(=O)Oc1ccc2c(c1)[C@]1(C)CCO[C@@H]1N2C [(-)-physovenine]	2.7 ± 1.4 nM		inhibition of AChE and BChE in vitro, comparison [2, 7]: similarly at similar concentrations; inhibition of AChE and BChE in vitro, comparison [3, 8]: similarly at similar concentrations; inhibition of cholinesterases in vitro and in vivo ([3]; prior art): potent inhibitors of cholinesterases in vitro and in vivo
Cc1ccc(NC(=O)Oc2ccc3c(c2)[C@]2(C)CCS[C@@H]2N3C)c(C)c1 [Ex. 8, (-) -3,3a,8,8a-tetrahydro-3a,8-dimethyl-2H-thieno[2,3-b]indole-5-ol 2',4'-dimethylphenylcarbamate]	1870 ± 291 nM	26.3 ± 3.8 nM	
CCCCNC(=O)Oc1ccc2c(c1)[C@]1(C)CCS[C@@H]1N2C [Ex. 1, (-)-3,3a, 8,8a-tetrahydro-3a, 8-dimethyl-2H-thieno-[2,3-b]indole-5-ol butyl carbamate]	0.7 ± 0.1 nM	13.5 ± 1.5 nM	
CC(C)c1ccccc1NC(=O)Oc1ccc2c(c1)[C@]1(C)CCS[C@@H]1N2C [Ex. 6, (-)-3,3a,8,8a-tetrahydro-3a,8-dimethy-2H-thieno[2,3-b]indole-5-ol 2'-isopropylphenylcarbamate]	963 ± 106 nM	25.5 ± 3.3 nM	
CCCCCCCNC(=O)Oc1ccc2c(c1)[C@]1(C)CCS[C@@H]1N2C [Ex. 2, (-)-3,3a,8,8a-tetrahydro-3a,8-dimethyl-2H-thieno[2,3-b]indole-5-ol heptylcarbamate]	6.8 ± 1.3 nM	25.7 ± 2.8 nM	
CN(C)C(=O)Oc1ccc2c(c1)[C@]1(C)CCS[C@@H]1N2C [Ex. 9, (-)-3,3a,8,8a-tetrahydro-3a,8-dimethyl-2H-thieno[2,3-b]indole-5-ol N,N-dimethylcarbamate]	22.5 ± 0.1 nM	197 ± 34.1 nM	inhibiting properties and persistence [5]: longlasting inhibiting properties
CNC(=O)Oc1ccc2c(c1)[C@@]1(C)CCN(C)[C@H]1N2C [(+)-physostigmine]			inhibition of cholinesterase (ChE) [3]: only negligible inhibition; also recorded: only negligible ChE inhibitory activity
CC(C)c1ccc(NC(=O)Oc2ccc3c(c2)[C@]2(C)CCS[C@@H]2N3C)cc1 [Ex. 7, (-)-3,3a,8,8a-tetrahydro-3a,8-dimethyl-2H-thieno[2,3-b]indole-5-ol 4'-isopropylphenylcarbamate]	45.3 ± 12.4 nM	> 10000 nM	
CNC(=O)Oc1ccc2c(c1)[C@]1(C)CCN(C)[C@@H]1N2C [(-)-physostigmine]			duration of action of AChE inhibition ([5]; rat, in vivo, iv): duration of action is short; in vivo inhibition of AChE ([5]; rat, in vivo, iv): good inhibition properties; inhibition of AChE and BChE in vitro, comparison [2]: similarly at similar concentrations; inhibition of AChE and BChE in vitro, comparison [3]: similarly at similar concentrations; inhibition of cholinesterases in vitro and in vivo [3]: potent inhibitors of cholinesterases in vitro and in vivo; properties at the neuromuscular AChR [6]: blocking properties as well as agonist properties
CCc1ccccc1NC(=O)Oc1ccc2c(c1)[C@]1(C)CCS[C@@H]1N2C [Ex. 5, (-)-3,3a,8,8a-tetrahydro-3a,8-dimethyl-2H-thieno[2,3-b]indole-5-ol 2'-ethylphenylcarbamate]	3430 ± 259 nM	30.1 ± 0.2 nM	
CN1c2ccc(OC(=O)Nc3ccccc3)cc2[C@]2(C)CCS[C@H]12 [Ex. 3, (-)-3,3a,8,8a-tetrahydro-3a,8-dimethyl-2H-thieno[2,3-b]indole-5-ol phenylcarbamate]	1660 ± 354 nM	27.2 ± 7.1 nM	
CNC(=O)Oc1ccc2c(c1)[C@]1(C)CCS[C@@H]1N2C [(-)-thiaphysovenine]			inhibiting properties and persistence [5]: good inhibition properties but does not persist; duration of action / persistence of AChE inhibition ([5]; rat plasma, i.v., 5 mg/kg, 480 minute period, FIG. 2): short duration of action; duration of action of AChE inhibition ([5]; rat plasma, i.v., FIG. 1): duration of action is short; in vivo inhibition of AChE ([5]; rat plasma, i.v., FIG. 1): good inhibition properties
Cc1ccccc1NC(=O)Oc1ccc2c(c1)[C@]1(C)CCS[C@@H]1N2C [Ex. 4, (-)-3,3a,8,8a-tetrahydro-3a,8-dimethyl;-2H-thieno[2,3-b]indole-5-ol 2'-methylphenylcarbamate]	5280 ± 354 nM	29 ± 5.6 nM	
CNC(=O)Oc1ccc2c(c1)[C@]1(C)CCN[C@@H]1N2C [(-)-N(1)-Norphysostigmine]			inhibition of AChE and BChE in vitro, comparison [2, 7]: similarly at similar concentrations; inhibition of AChE and BChE in vitro, comparison [3, 8]: similarly at similar concentrations
